These molecules were tested against T1, A2A receptor (Homo sapiens, UniProt P29274) (assay: Test 1: inhibitory activity to the A2A receptor, cAMP HTRF in CHO-K1/ADORA2A/Gα15 cells, NECA 50 nM).
T1 construct: host or cells: CHO-K1 (co-expressing Gα15)
Assay type: cell-based
Experimental: (§1) Test 1: Inhibitory Activities to the A2A Receptor and the A2B Receptor CHO-K1/ADORA2A/Gα15 (GenScript, M00246) and CHO-K1/ADORA2B/Gα15 (GenScript, M00329) cells were cultured in a Ham's F-12 (Gibco, 31765092) medium containing 10% FBS, Zeocin (200 ug/mL), and Hygromycin B (100 ug/mL), or containing 10% FBS, G418 (400 ug/mL), and Hygromycin B (100 ug/mL) under culture conditions specified in the corresponding instruction. Screening procedure was as follows: 1. The cell density was adjusted with a serum-free medium to 6×10^5 cells/mL. 2. 5 uL of cell solution, 2.5 μL of NECA (Sigma, 119140-10MG), and 2.5 μL of compound solution were placed into each well of a 384-well plate (Greiner Bio-One, 784075) in sequence, the final concentration of NECA was 50 nM (CHO-K1/ADORA2A) or 10 nM (CHO-K1/ADORA2B), and the compound solution was subjected to 3-fold dilution from the final concentration of 3 uM. 3. The cells were placed still and cultured in an incubator at 37° C. for 30 min. 4. 5 μL of cAMP-d2 and 5 μL of cAMP-ab (Cisbio, 62AM4PEB) were added in sequence. 5. The 384-well plate was placed in dark at the room temperature for 1 h. 6. The plate was read (Victor X5, PerkinElmer), data were analyzed by XLfit nonlinear regression, and IC50 values of the compounds were calculated.

T1 sequence (P29274 whole entry): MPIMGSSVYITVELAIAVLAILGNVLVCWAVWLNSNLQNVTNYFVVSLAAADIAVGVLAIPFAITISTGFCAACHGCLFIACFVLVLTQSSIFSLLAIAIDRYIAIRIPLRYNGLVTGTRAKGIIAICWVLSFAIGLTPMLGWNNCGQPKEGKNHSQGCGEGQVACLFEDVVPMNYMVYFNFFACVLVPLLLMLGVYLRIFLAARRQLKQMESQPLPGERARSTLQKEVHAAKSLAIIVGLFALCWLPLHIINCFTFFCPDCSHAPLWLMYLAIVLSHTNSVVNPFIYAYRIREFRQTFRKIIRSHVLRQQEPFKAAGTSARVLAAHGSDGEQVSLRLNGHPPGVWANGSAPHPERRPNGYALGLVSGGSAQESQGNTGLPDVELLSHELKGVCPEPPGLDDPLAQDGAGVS

| IC50 | SMILES |
| --- | --- |
| 0.006 µM | Cc1c(C#N)cccc1-c1nc(N)c(F)c(-c2cn(Cc3cccc(CN4CCN(C)CC4)n3)nn2)n1 [Compound L-71] |
| 0.017 µM | Cc1c(F)cccc1-c1nc(N)c(F)c(-c2cn(Cc3cccc(C(C)(C)O)n3)nn2)n1 [Compound L-14] |
| 0.007 µM | Cc1c(C#N)cccc1-c1nc(N)c(F)c(-c2cn(Cc3cc[nH]n3)nn2)n1 [Compound L-27] |
| < 0.001 µM | Cc1c(C#N)cccc1-c1nc(N)c(Cl)c(-c2cn(Cc3ccn(C4CC4)n3)nn2)n1 [Compound L-12] |
| 0.01 µM | Cc1c(C#N)cccc1-c1nc(N)c(Cl)c(-c2cn(Cc3cc(C(C)(C)O)[nH]n3)nn2)n1 [Compound L-22] |
| 0.006 µM | Cc1c(C#N)cccc1-c1nc(N)c(F)c(-c2cn(Cc3ccn(CC#N)n3)nn2)n1 [Compound L-97] |
| 0.005 µM | Cc1c(C#N)cccc1-c1nc(N)c(F)c(-c2cn(Cc3ccn(CC(C)(C)O)n3)nn2)n1 [Compound L-76] |
| 0.005 µM | Cc1c(C#N)cccc1-c1nc(N)c(F)c(-c2cn(Cc3cccc(N4CCOCC4)n3)nn2)n1 [Compound L-69] |
| 0.062 µM | Cc1c(C#N)cccc1-c1nc(N)nc(-c2cn(Cc3cccc(C(C)(C)O)n3)nn2)c1F [Compound L-2] |
| 0.003 µM | Cc1c(C#N)cccc1-c1nc(N)c(F)c(-c2cn(Cc3cccc(C(F)F)n3)nn2)n1 [Compound L-73] |
| 0.003 µM | Cc1c(C#N)cccc1-c1nc(N)c(F)c(-c2cn(Cc3ccn(CC4CCCO4)n3)nn2)n1 [Compound L-83] |
| 0.079 µM | COCc1cccc(Cn2cc(-c3nc(N)nc(-c4cccc(C#N)c4C)c3F)nn2)n1 [Compound L-60] |
| 0.001 µM | Cc1c(C#N)cccc1-c1nc(N)c(F)c(-c2cn(Cc3cccn(C4CC4)c3=O)nn2)n1 [Compound L-17] |
| 0.003 µM | Cc1c(C#N)cccc1-c1nc(N)c(F)c(-c2cn(Cc3cccc(C4(O)CCCC4)n3)nn2)n1 [Compound L-66] |
| 0.005 µM | Cc1c(C#N)cccc1-c1nc(N)c(F)c(-c2cn(Cc3cccc(N4CCC(O)C4)n3)nn2)n1 [Compound L-65] |
| 0.002 µM | Cc1c(C#N)cccc1-c1nc(N)c(Cl)c(-c2cn(Cc3ccn(C(F)F)n3)nn2)n1 [Compound L-34] |
| 0.001 µM | Cc1c(C#N)cccc1-c1nc(N)c(F)c(-c2cn(Cc3cccc(C4(O)CCC4)n3)nn2)n1 [Compound L-64] |
| 0.007 µM | Cc1c(C#N)cccc1-c1nc(N)c(F)c(-c2cn(Cc3cccc(C(N)=O)n3)nn2)n1 [Compound L-56] |
| 0.002 µM | Cc1c(C#N)cccc1-c1nc(N)c(F)c(-c2cn(Cc3ccn(CC(F)(F)F)n3)nn2)n1 [Compound L-37] |
| 0.011 µM | Cc1c(C#N)cccc1-c1nc(N)c(F)c(-c2cn(Cc3cc(C4CC4)n(C)n3)nn2)n1 [Compound L-92] |
| 0.009 µM | Cc1c(C#N)cccc1-c1nc(N)c(F)c(-c2cn(Cc3ccn(CC(N)=O)n3)nn2)n1 [Compound L-29] |
| 0.005 µM | Cc1c(C#N)cccc1-c1nc(N)c(F)c(-c2cn(Cc3ccn(C4CCN(C)C4)n3)nn2)n1 [Compound L-90] |
| 0.002 µM | Cc1c(C#N)cccc1-c1nc(N)c(F)c(-c2cn(Cc3cccc(C4(O)COC4)n3)nn2)n1 [Compound L-53] |
| 0.004 µM | Cc1c(C#N)cccc1-c1nc(N)c(F)c(-c2cn(Cc3cccc(N4CCN(C)CC4)n3)nn2)n1 [Compound L-72] |
| < 0.001 µM | Cc1c(C#N)cccc1-c1nc(N)c(Cl)c(-c2cn(Cc3cccn(CC(C)(C)O)c3=O)nn2)n1 [Compound L-7] |
| 0.011 µM | Cc1c(C#N)cccc1-c1nc(N)c(F)c(-c2cn(Cc3cnn(C)n3)nn2)n1 [Compound L-47] |

Each molecule was assayed against T2, A2B receptor (Homo sapiens, UniProt P29275) (assay: Test 1: inhibitory activity to the A2B receptor, cAMP HTRF in CHO-K1/ADORA2B/Gα15 cells, NECA 10 nM).
T2 construct: host or cells: CHO-K1 (co-expressing Gα15)
T2 sequence (P29275 1-332): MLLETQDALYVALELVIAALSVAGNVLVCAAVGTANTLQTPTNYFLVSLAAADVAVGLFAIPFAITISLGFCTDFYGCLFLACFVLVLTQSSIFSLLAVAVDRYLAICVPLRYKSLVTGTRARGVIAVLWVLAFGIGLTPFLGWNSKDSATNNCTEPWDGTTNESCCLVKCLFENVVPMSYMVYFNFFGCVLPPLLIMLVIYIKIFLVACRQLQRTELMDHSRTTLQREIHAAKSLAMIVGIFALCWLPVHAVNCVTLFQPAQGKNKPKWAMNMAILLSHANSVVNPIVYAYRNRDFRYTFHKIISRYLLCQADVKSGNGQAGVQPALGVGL
Assay type: cell-based
Experimental: as §1

| IC50 | SMILES |
| --- | --- |
| 0.023 µM | Cc1c(C#N)cccc1-c1nc(N)c(F)c(-c2cn(Cc3cccc(CN4CCN(C)CC4)n3)nn2)n1 [Compound L-71] |
| 0.014 µM | Cc1c(F)cccc1-c1nc(N)c(F)c(-c2cn(Cc3cccc(C(C)(C)O)n3)nn2)n1 [Compound L-14] |
| 0.002 µM | Cc1c(C#N)cccc1-c1nc(N)c(F)c(-c2cn(Cc3cc[nH]n3)nn2)n1 [Compound L-27] |
| 0.004 µM | Cc1c(C#N)cccc1-c1nc(N)c(Cl)c(-c2cn(Cc3ccn(C4CC4)n3)nn2)n1 [Compound L-12] |
| 0.001 µM | Cc1c(C#N)cccc1-c1nc(N)c(Cl)c(-c2cn(Cc3cc(C(C)(C)O)[nH]n3)nn2)n1 [Compound L-22] |
| 0.005 µM | Cc1c(C#N)cccc1-c1nc(N)c(F)c(-c2cn(Cc3ccn(CC#N)n3)nn2)n1 [Compound L-97] |
| 0.007 µM | Cc1c(C#N)cccc1-c1nc(N)c(F)c(-c2cn(Cc3ccn(CC(C)(C)O)n3)nn2)n1 [Compound L-76] |
| 0.02 µM | Cc1c(C#N)cccc1-c1nc(N)c(F)c(-c2cn(Cc3cccc(N4CCOCC4)n3)nn2)n1 [Compound L-69] |
| 0.029 µM | Cc1c(C#N)cccc1-c1nc(N)nc(-c2cn(Cc3cccc(C(C)(C)O)n3)nn2)c1F [Compound L-2] |
| 0.005 µM | Cc1c(C#N)cccc1-c1nc(N)c(F)c(-c2cn(Cc3cccc(C(F)F)n3)nn2)n1 [Compound L-73] |
| 0.007 µM | Cc1c(C#N)cccc1-c1nc(N)c(F)c(-c2cn(Cc3ccn(CC4CCCO4)n3)nn2)n1 [Compound L-83] |
| 0.073 µM | COCc1cccc(Cn2cc(-c3nc(N)nc(-c4cccc(C#N)c4C)c3F)nn2)n1 [Compound L-60] |
| 0.007 µM | Cc1c(C#N)cccc1-c1nc(N)c(F)c(-c2cn(Cc3cccn(C4CC4)c3=O)nn2)n1 [Compound L-17] |
| 0.011 µM | Cc1c(C#N)cccc1-c1nc(N)c(F)c(-c2cn(Cc3cccc(C4(O)CCCC4)n3)nn2)n1 [Compound L-66] |
| 0.022 µM | Cc1c(C#N)cccc1-c1nc(N)c(F)c(-c2cn(Cc3cccc(N4CCC(O)C4)n3)nn2)n1 [Compound L-65] |
| 0.008 µM | Cc1c(C#N)cccc1-c1nc(N)c(Cl)c(-c2cn(Cc3ccn(C(F)F)n3)nn2)n1 [Compound L-34] |
| 0.004 µM | Cc1c(C#N)cccc1-c1nc(N)c(F)c(-c2cn(Cc3cccc(C4(O)CCC4)n3)nn2)n1 [Compound L-64] |
| 0.024 µM | Cc1c(C#N)cccc1-c1nc(N)c(F)c(-c2cn(Cc3cccc(C(N)=O)n3)nn2)n1 [Compound L-56] |
| 0.007 µM | Cc1c(C#N)cccc1-c1nc(N)c(F)c(-c2cn(Cc3ccn(CC(F)(F)F)n3)nn2)n1 [Compound L-37] |
| 0.005 µM | Cc1c(C#N)cccc1-c1nc(N)c(F)c(-c2cn(Cc3cc(C4CC4)n(C)n3)nn2)n1 [Compound L-92] |
| 0.008 µM | Cc1c(C#N)cccc1-c1nc(N)c(F)c(-c2cn(Cc3ccn(CC(N)=O)n3)nn2)n1 [Compound L-29] |
| 0.029 µM | Cc1c(C#N)cccc1-c1nc(N)c(F)c(-c2cn(Cc3ccn(C4CCN(C)C4)n3)nn2)n1 [Compound L-90] |
| 0.004 µM | Cc1c(C#N)cccc1-c1nc(N)c(F)c(-c2cn(Cc3cccc(C4(O)COC4)n3)nn2)n1 [Compound L-53] |
| 0.014 µM | Cc1c(C#N)cccc1-c1nc(N)c(F)c(-c2cn(Cc3cccc(N4CCN(C)CC4)n3)nn2)n1 [Compound L-72] |
| 0.007 µM | Cc1c(C#N)cccc1-c1nc(N)c(Cl)c(-c2cn(Cc3cccn(CC(C)(C)O)c3=O)nn2)n1 [Compound L-7] |
| 0.024 µM | Cc1c(C#N)cccc1-c1nc(N)c(F)c(-c2cn(Cc3cnn(C)n3)nn2)n1 [Compound L-47] |

Source: patent publication US20230145793A1, “SUBSTITUTED PYRIMIDINE OR PYRIDINE AMINE DERIVATIVE, COMPOSITION THEREOF, AND MEDICAL USE THEREOF” (SHANGHAI HAIYAN PHARMACEUTICAL TECHNOLOGY CO., LTD., priority 2020, published 2023)
